Experimental data from patent US9776991B2, “Thienomethylpiperazine derivatives as inhibitors of soluble epoxide hydrolase” (SANOFI, priority 2013, dated 2017).
Structures can show the parent of a compound that is named as a salt.

Molecular target: recombinant sEH (soluble epoxide hydrolase, EPHX2) (Homo sapiens (Human), UniProt P34913)
Experiment: biochemical fluorometric sEH inhibition assay with Phome substrate
Details: recombinant sEH purified from Sf9 insect cells, 2 nM sEH, 5 μM Phome, 60 minutes at 30° C.
Procedure: Compounds were tested in a biochemical screening assay using recombinant sEH purified from Sf9 insect cells and an artificial substrate, (3-phenyl-oxiranyl)-acetic acid cyano-(6-methoxy-naphtalen-2-yl)-methyl ester, Phome. The biochemical assay was performed in analogy to a fluorometric described in the literature (P. D. Jones et al., Anal. Biochem. 2005, 343, 66-75). The assay principle bases on the sEH-catalyzed hydrolysis of an artificial α-cyano-ester substrate. O-deacetylation liberates a cyanohydrin intermediate that rapidly decomposes to the highly fluorescent 6-methoxy-2-naphtaldehyde. To discriminate sample autofluorescence, the assay was carried out as a kinetic measurement with two time points. The first measurement is performed immediately before addition of the substrate and the […] measurement is done after completion of the assay. The assay format is either in 96- or in 384-well format.
Details of the assay using a 96-well plate format are described below. 40 μl recombinant sEH enzyme and 5 μl test compound are pre-incubated for 15 minutes at 30° C. Following pre-incubation, the reaction is started by addition of 5 μl Phome. The assay mixture containing 2 nM final sEH concentration, test compound ranging in a concentration from 0.0001-10 μM and 5 μM Phome is incubated for 60 minutes at 30° C.
Fluorescence is measured with any suitable detector for instance a TECAN Safire or Tecan Ultra at […]. % inhibition of recombinant sEH activity is used for calculation of corresponding IC50 values as illustrated and described in the examples.
The NCBI gene bank reference sequence with the accession number NM_001979 for EPHX2/sEH was applied for recombinant protein production:
The following commercially available materials have been used: • Incubation reagent: 25 mM Hepes (Sigma-Aldrich, Cat. No H-3375), 0.01% bovine albumin (Sigma-Aldrich Cat. No PA9205) • Substrate: 3-Phenyl-oxiranyl)-acetic acid cyano-(6-methoxy-naphtalen-2-yl)-methyl ester, Phome (Biozol Cat. No 10003134) • Microtiter plates: 96-well plates (Greiner Cat. No 655180; Costar Cat. No 3915)

recombinant sEH (soluble epoxide hydrolase, EPHX2), sequence (P34913 whole entry): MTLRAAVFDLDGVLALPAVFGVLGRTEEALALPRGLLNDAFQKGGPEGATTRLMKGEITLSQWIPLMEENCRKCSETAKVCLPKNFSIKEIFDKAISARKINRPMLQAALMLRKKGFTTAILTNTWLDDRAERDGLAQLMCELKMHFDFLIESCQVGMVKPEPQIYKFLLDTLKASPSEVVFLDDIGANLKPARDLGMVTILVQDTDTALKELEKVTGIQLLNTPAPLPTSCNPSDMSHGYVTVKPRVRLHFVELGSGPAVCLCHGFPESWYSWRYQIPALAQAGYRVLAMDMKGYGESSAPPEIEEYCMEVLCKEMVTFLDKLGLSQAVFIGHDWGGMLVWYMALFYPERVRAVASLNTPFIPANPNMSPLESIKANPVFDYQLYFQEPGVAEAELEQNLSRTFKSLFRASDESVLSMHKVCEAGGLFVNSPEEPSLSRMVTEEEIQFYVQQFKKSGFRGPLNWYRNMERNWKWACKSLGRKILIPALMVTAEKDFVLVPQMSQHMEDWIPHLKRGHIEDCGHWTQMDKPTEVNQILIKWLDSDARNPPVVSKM

| IC50 [nM] | Structure (SMILES) |
| --- | --- |
| 5.3 | Cc1cc(N2CCN(Cc3ccc(C(=O)NCc4ccc(Cl)cc4Cl)s3)CC2)cc(C)n1 [Example 120, 5-[4-(2,6-Dimethyl-pyridin-4-yl)-piperazin-1-ylmethyl]-thiophene-2-carboxylic acid 2,4-dichloro-benzylamide] |
| 1.68 | O=C(NCc1ccccc1OC(F)(F)F)c1ccc(CN2CCN(C(=O)c3ccccn3)CC2)s1 [Example 121] |
| 1.74 | Cc1noc(C)c1C(=O)N1CCN(Cc2ccc(C(=O)NCc3ccccc3OC(F)(F)F)s2)CC1 [Example 122] |
| 1.69 | CC(C)(O)C(=O)N1CCN(Cc2ccc(C(=O)NCc3ccccc3OC(F)(F)F)s2)CC1 [Example 123] |
| 1.69 | COc1ccc(CNC(=O)c2ccc(CN3CCN(c4ccccn4)CC3)s2)c(OC(F)(F)F)c1 [Example 124] |
| 1.68 | O=C(NCc1ccccc1OC(F)(F)F)c1ccc(CN2CCN(CCO)CC2)s1 [Example 125] |
| 1.75 | COc1ccc(CNC(=O)c2ccc(CN3CCN(c4ncccc4C)C(=O)C3)s2)c(OC(F)(F)F)c1 [Example 126] |
| 1.73 | COc1ccc(CNC(=O)c2ccc(CN3CCN(c4cc(C)ccn4)CC3)s2)c(OC(F)(F)F)c1 [Example 127] |
| 1.73 | CC(C)(O)CC(=O)N1CCN(Cc2ccc(C(=O)NCc3ccccc3OC(F)(F)F)s2)CC1 [Example 128] |
| 1.73 | O=C(NCc1ccccc1OC(F)(F)F)c1ccc(CN2CCN(C(=O)c3nc(F)ccc3F)CC2)s1 [Example 129] |
| 1.73 | Cn1cccc1C(=O)N1CCN(Cc2ccc(C(=O)NCc3ccc(Cl)cc3Cl)s2)CC1 [Example 130] |
| 2.13 | O=C(NCc1ccc(Cl)cc1Cl)c1ccc(CN2CCN(C(=O)c3ccccc3F)CC2)s1 [Example 131] |
| 2.09 | O=C(NCc1ccccc1OC(F)(F)F)c1ccc(CN2CCN(C(=O)c3cccc(O)n3)CC2)s1 [Example 132] |
| 2.14 | NC1(C(=O)N2CCN(Cc3ccc(C(=O)NCc4ccc(Cl)cc4Cl)s3)CC2)CCOCC1 [Example 133] |
| 2.15 | COc1ccc(CNC(=O)c2ccc(CN3CCN(C)C(=O)C3)s2)c(OC(F)(F)F)c1 [Example 134] |
| 2.14 | CNC(=O)c1cccnc1N1CCN(Cc2ccc(C(=O)NCc3ccccc3OC(F)(F)F)s2)CC1 [Example 135] |
| 2.13 | O=C(NCc1ccccc1OC(F)(F)F)c1ccc(CN2CCN(c3ccc(O)nn3)CC2)s1 [Example 136] |
| 1.76 | CSCCC(=O)N1CCN(Cc2ccc(C(=O)NCc3ccccc3OC(F)(F)F)s2)CC1 [Example 137] |
| 6.27 | CC(C(=O)N1CCN(Cc2ccc(C(=O)NCc3ccccc3OC(F)(F)F)s2)CC1)N(C)C (stereo not shown) [Example 138] |
| 1.81 | COCCCC(=O)N1CCN(Cc2ccc(C(=O)NCc3ccccc3OC(F)(F)F)s2)CC1 [Example 140] |
| 1.86 | O=C(NCc1ccccc1OC(F)(F)F)c1ccc(CN2CCN(C(=O)C3CC3)CC2)s1 [Example 141] |
| 1.82 | O=C(NCc1ccccc1OC(F)(F)F)c1ccc(CN2CCN(c3nncs3)CC2)s1 [Example 142] |
| 1.85 | NC1(C(=O)N2CCN(Cc3ccc(C(=O)NCc4ccccc4OC(F)(F)F)s3)CC2)CCC1 [Example 143] |
| 1.79 | NC(CF)C(=O)N1CCN(Cc2ccc(C(=O)NCc3ccccc3OC(F)(F)F)s2)CC1 (stereo not shown) [Example 144] |
| 1.88 | NC1(C(=O)N2CCN(Cc3ccc(C(=O)NCc4ccccc4OC(F)(F)F)s3)CC2)CCOCC1 [Example 145] |

| IC50 [nM] | Structure (SMILES) |
| --- | --- |
| 1.94 | COc1ccc(CNC(=O)c2ccc(CN3CCN(c4ccc(CO)cn4)CC3)s2)c(OC(F)(F)F)c1 [Example 146] |
| 1.96 | O=C(NCc1ccccc1OC(F)(F)F)c1ccc(CN2CCN(C(=O)C3COCCO3)CC2)s1 (stereo not shown) [Example 147] |
| 1.87 | Cc1cc(C(=O)NCc2ccccc2OC(F)(F)F)sc1CN1CCN(C(=O)c2c(C)cc(=O)oc2C)CC1 [Example 148] |
| 8.2 | COc1cc(CNC(=O)c2ccc(CN3CCN(C(=O)c4nc(F)ccc4F)CC3)s2)ccn1 [Example 149, 5-[4-(3,6-Difluoro-pyridine-2-carbonyl)-piperazin-1-ylmethyl]-thiophene-2-carboxylic acid (2-methoxy-pyridin-4-ylmethyl)-amide] |
| 1.87 | Cc1cc(=O)oc(C)c1C(=O)N1CCN(Cc2ccc(C(=O)NCc3ccccc3OC(F)F)s2)CC1 [Example 150] |
| 1.97 | O=C(NCc1ccccc1C(F)(F)F)c1ccc(CN2CCN(C(=O)c3cnn4ccccc34)CC2)s1 [Example 151] |
| 2.07 | Cc1ccc(C(=O)N2CCN(Cc3ccc(C(=O)NCc4ccccc4C(F)(F)F)s3)CC2)s1 [Example 152] |
| 2.56 | O=C(NCc1ccc(Cl)cc1Cl)c1ccc(CN2CCN(C(=O)[C@@H]3C[C@H]3c3ccccc3)CC2)s1 [Example 153] |
| 2.05 | Cc1ccc(C(=O)N2CCN(Cc3ccc(C(=O)NCc4ccc(Cl)cc4Cl)s3)CC2)s1 [Example 154] |
| 2 | O=C(NCc1ccccc1OC(F)(F)F)c1ccc(CN2CCN(C(=O)CN3CCOC3=O)CC2)s1 [Example 156] |
| 2.08 | NC1(C(=O)N2CCN(Cc3ccc(C(=O)NCc4ccccc4OC(F)(F)F)s3)CC2)CCCCC1 [Example 157] |
| 2.04 | COCc1cc(O)nc(N2CCN(Cc3ccc(C(=O)NCc4ccccc4OC(F)(F)F)s3)CC2)n1 [Example 158] |
| 0.8 | Cc1cc(C(=O)NCCC(C)(C)C)sc1CN1CCN(C(=O)c2c(C)cc(=O)oc2C)CC1 [Example 159] |
| 1.41 | Cc1noc(C)c1C(=O)N1CCN(Cc2ncc(C(=O)NCc3ccc(Cl)cc3Cl)s2)CC1 [Example 160] |
| 6.11 | CC1(C)OC(=O)CC1C(=O)N1CCN(Cc2ncc(C(=O)NCc3ccc(Cl)cc3Cl)s2)CC1 (stereo not shown) [Example 161] |
| 12.2 | Cc1cc(=O)oc(C)c1C(=O)N1CCN(Cc2ncc(C(=O)NCc3ccc(Cl)cc3Cl)s2)CC1 [Example 162] |
| 25.2 | O=C(NCc1ccc(Cl)cc1Cl)c1cnc(CN2CCN(C(=O)CCO)CC2)s1 [Example 163] |
| 11.4 | CSCCC(=O)N1CCN(Cc2ncc(C(=O)NCc3ccc(Cl)cc3Cl)s2)CC1 [Example 164] |
| 21.3 | COCCCC(=O)N1CCN(Cc2ncc(C(=O)NCc3ccc(Cl)cc3Cl)s2)CC1 [Example 166] |
| 12.2 | CCC(C)(O)C(=O)N1CCN(Cc2ncc(C(=O)NCc3ccc(Cl)cc3Cl)s2)CC1 (stereo not shown) [Example 167] |
| 77.9 | O=C(NCc1ccc(Cl)cc1Cl)c1cnc(CN2CCN(C(=O)CN3CCCC3=O)CC2)s1 [Example 168] |
| 8.76 | CC(C(=O)N1CCN(Cc2ncc(C(=O)NCc3ccc(Cl)cc3Cl)s2)CC1)N1CCCC1=O (stereo not shown) [Example 169] |
| 18 | O=C(NCc1ccc(Cl)cc1Cl)c1cnc(CN2CCN(C(=O)C3COCCO3)CC2)s1 (stereo not shown) [Example 170] |
| 15.8 | O=C(NCc1ccc(Cl)cc1Cl)c1cnc(CN2CCN(C(=O)C3CC3)CC2)s1 [Example 171] |

| Structure (SMILES) | IC50 [nM] |
| --- | --- |
| COc1cc(CNC(=O)c2ccc(CN3CCN(C(=O)c4c(C)n[nH]c4C)CC3)s2)ccn1 [Example 139, 5-[4-(3,5-Dimethyl-1H-pyrazole-4-carbonyl)-piperazin-1-ylmethyl]-thiophene-2-carboxylic acid (2-methoxy-pyridin-4-ylmethyl)-amide trifluoroacetate] | 2.85 |
| CC(O)C(=O)N1CCN(Cc2ccc(C(=O)NCc3ccccc3OC(F)(F)F)s2)CC1 (stereo not shown) [Example 155] | 1.99 |
| Cc1noc(C)c1CC(=O)N1CCN(Cc2ncc(C(=O)NCc3ccc(Cl)cc3Cl)s2)CC1 [Example 165] | 9.61 |
